# Target: T1, aromatase (Homo sapiens, UniProt P11511)
# T1 sequence (P11511 1-503): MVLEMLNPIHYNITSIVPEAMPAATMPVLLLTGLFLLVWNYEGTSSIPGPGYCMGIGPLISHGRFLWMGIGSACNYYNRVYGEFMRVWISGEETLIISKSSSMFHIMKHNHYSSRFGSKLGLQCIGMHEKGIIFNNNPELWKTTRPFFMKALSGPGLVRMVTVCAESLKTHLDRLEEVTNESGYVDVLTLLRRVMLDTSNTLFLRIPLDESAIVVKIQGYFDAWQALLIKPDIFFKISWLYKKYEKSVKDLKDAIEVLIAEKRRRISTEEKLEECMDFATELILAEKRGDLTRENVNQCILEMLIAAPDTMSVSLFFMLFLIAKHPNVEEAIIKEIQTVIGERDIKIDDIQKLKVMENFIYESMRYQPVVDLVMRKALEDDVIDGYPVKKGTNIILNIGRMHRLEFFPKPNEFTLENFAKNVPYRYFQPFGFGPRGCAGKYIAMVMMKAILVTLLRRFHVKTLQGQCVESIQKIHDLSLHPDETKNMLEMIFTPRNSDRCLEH
# Assay: not given
# Details: read-out: IC50 from human placental microsomal assay; cited from earlier work
row,Structure (SMILES),IC50
1,C[C@]12CCC(=O)C(O)=C1CC[C@@H]1[C@@H]2CC[C@]2(C)C(=O)CC[C@@H]12 [Formestane],50 nM

# Target: T1, aromatase
# Assay: not given
# Details: mammary fibroblast cultures; Aminoglutethimide = 1; cited from earlier work
row,Structure (SMILES),"RP, mammary fibroblast cultures"
1,CC(C)(C#N)c1cc(Cn2cncn2)cc(C(C)(C)C#N)c1 [Anasatrozole],570
2,N#Cc1ccc(C(c2ccc(C#N)cc2)n2cncn2)cc1 [Letrozole],"10,000"

# Same assay, conditions: read-out: IC50, mammary fibroblast cultures; cited from earlier work
row,Structure (SMILES),IC50
1,C[C@]12CCC(=O)C(O)=C1CC[C@@H]1[C@@H]2CC[C@]2(C)C(=O)CC[C@@H]12 [Formestane],45 nM

# Target: T1, aromatase
# Assay: not given
# Details: Aminoglutethimide = 1; cited from earlier work
row,Structure (SMILES),"RP, breast cancer homogenates"
1,CC(C)(C#N)c1cc(Cn2cncn2)cc(C(C)(C)C#N)c1 [Anasatrozole],450
2,N#Cc1ccc(C(c2ccc(C#N)cc2)n2cncn2)cc1 [Letrozole],1800

# Target: T1, aromatase
# Assay: Aromatase inhibition assay in human placental microsomes
# Type: biochemical
# Design: Microsomal protein (1 mg, from human placental tissue); from tissue; host or cells: human placenta, microsomal fraction
# Details: inhibitor 500 nM; human placental microsomal protein; [1β-3H]androstenedione 15 nM; 15 min at 30° C.
row,Structure (SMILES),inhibition at 0.5 µM
1,"Cc1ccc(C2CC(n3cncn3)c3ccccc3N2)cc1 (stereo not shown) [Compound 6i, 2-(p-Tolyl)-4-[1,2,4]triazol-1-yl-1,2,3,4-tetrahydro-quinoline]",13.6%
2,"Clc1ccc(C2CC(n3ccnc3)c3ccccc3N2)cc1 (stereo not shown) [Compound 6d, 2-(4-Chlorophenyl)-4-imidazol-1-yl-1,2,3,4-tetrahydro-quinoline]",87.4%
3,"Fc1ccc(C2CC(n3cncn3)c3ccccc3N2)cc1 (stereo not shown) [Compound 6n, 2-(4-Fluorophenyl)-4-[1,2,4]triazol-1-yl-1,2,3,4-tetrahydro-quinoline]",19.5%
4,"Cc1ccc(C2CC(n3ccnc3)c3ccccc3N2)cc1 (stereo not shown) [Compound 6b, 2-(p-Tolyl)-4-imidazol-1-yl-1,2,3,4-tetrahydro-quinoline]",67.4%
5,"COc1ccc(-c2[nH]c3c(Br)cc(Br)cc3c(=O)c2Cc2ccncc2)cc1 [Compound 10j, 6,8-Dibromo-2-(4-Methoxyphenyl)-3-((pyridin-4-yl)methyl)quinolin-4(1H)-one]",40.5%
6,"O=c1c(Cc2ccncc2)c(-c2ccc(F)cc2)[nH]c2ccccc12 [Compound 10g, 2-(4-Fluorophenyl)-3-((pyridin-4-yl)methyl)quinolin-4(1H)-one]",11.8%
7,"O=c1c(Cc2ccncc2)c(-c2ccc(Cl)cc2)[nH]c2ccccc12 [Compound 10d, 2-(4-Chlorophenyl)-3-((pyridin-4-yl)methyl)quinolin-4(1H)-one]",13.7%
8,"Clc1ccc(C2CC(n3cncn3)c3ccccc3N2)cc1 (stereo not shown) [Compound 6k, 2-(4-Chlorophenyl)-4-[1,2,4]triazol-1-yl-1,2,3,4-tetrahydro-quinoline]",41.9%
9,"c1ccc(C2CC(n3ccnc3)c3ccccc3N2)cc1 (stereo not shown) [Compound 6a, 2-Phenyl-4-imidazol-1-yl-1,2,3,4-tetrahydro-quinoline]",61.8%
10,"O=c1c(Cc2ccncc2)c(-c2ccc(Cl)cc2)[nH]c2c(Br)cc(Br)cc12 [Compound 10k, 6,8-Dibromo-2-(4-Chlorophenyl)-3-((pyridin-4-yl)methyl)quinolin-4(1H)-one]",55.7%
11,"Brc1ccc(C2CC(n3cncn3)c3ccccc3N2)cc1 (stereo not shown) [Compound 6l, 2-(4-Bromophenyl)-4-[1,2,4]triazol-1-yl-1,2,3,4-tetrahydro-quinoline]",43.9%
12,"O=c1c(Cc2ccncc2)c(-c2ccc(Br)cc2)[nH]c2ccccc12 [Compound 10e, 2-(4-Bromophenyl)-3-((pyridin-4-yl)methyl)quinolin-4(1H)-one]",8.2%
13,"COc1ccc(C2CC(n3cncn3)c3ccccc3N2)cc1 (stereo not shown) [Compound 6j, 2-(4-Methoxyphenyl)-4-[1,2,4]triazol-1-yl-1,2,3,4-tetrahydro-quinoline]",12.8%
14,"Cc1ccc(-c2[nH]c3ccccc3c(=O)c2Cc2ccncc2)cc1 [Compound 10b, 2-(p-Tolyl)-3-((pyridin-4-yl)methyl)quinolin-4(1H)-one]",3.1%
15,"O=c1c(Cc2ccncc2)c(-c2ccccc2)[nH]c2ccccc12 [Compound 10a, 2-Phenyl-3-((pyridin-4-yl)methyl)quinolin-4(1H)-one]",7.2%
16,"N#Cc1ccc(C2CC(n3cncn3)c3ccccc3N2)cc1 (stereo not shown) [Compound 6m, 4-(4-[1,2,4]Triazol-1-yl-1,2,3,4-tetrahydro-quinolin-2-yl)-benzonitrile]",36.1%
17,"N#Cc1ccc(C2CC(n3ccnc3)c3ccccc3N2)cc1 (stereo not shown) [Compound 6f, 4-(4-Imidazol-1-yl-1,2,3,4-tetrahydro-quinolin-2-yl)-benzonitrile]",84.3%
18,"COc1ccc(C2CC(n3ccnc3)c3ccccc3N2)cc1 (stereo not shown) [Compound 6c, 2-(4-Methoxyphenyl)-4-imidazol-1-yl-1,2,3,4-tetrahydro-quinoline]",53.1%
19,"COc1ccc(-c2[nH]c3ccccc3c(=O)c2Cc2ccncc2)cc1 [Compound 10c, 2-(4-Methoxyphenyl)-3-((pyridin-4-yl)methyl)quinolin-4(1H)-one]",0.7%
20,"Cc1ccc(-c2[nH]c3c(Br)cc(Br)cc3c(=O)c2Cc2ccncc2)cc1 [Compound 10i, 6,8-Dibromo-2-(p-tolyl)-3-((pyridin-4-yl)methyl)quinolin-4(1H)-one]",22.3%
21,"Fc1ccc(C2CC(n3ccnc3)c3ccccc3N2)cc1 (stereo not shown) [Compound 6g, 2-(4-Fluorophenyl)-4-imidazol-1-yl-1,2,3,4-tetrahydro-quinoline]",80.5%
22,"Brc1ccc(C2CC(n3ccnc3)c3ccccc3N2)cc1 (stereo not shown) [Compound 6e, 2-(4-Bromophenyl)-4-imidazol-1-yl-1,2,3,4-tetrahydro-quinoline]",89.7%
23,N#Cc1ccc(-c2[nH]c3ccccc3c(=O)c2Cc2ccncc2)cc1 [Compound 10f],1.8%
24,"O=c1c(Cc2ccncc2)c(-c2ccccc2)[nH]c2c(Br)cc(Br)cc12 [Compound 10h, 6,8-Dibromo-2-phenyl-3-((pyridin-4-yl)methyl)quinolin-4(1H)-one]",27.3%
25,"c1ccc(C2CC(n3cncn3)c3ccccc3N2)cc1 (stereo not shown) [Compound 6h, 2-Phenyl-4-[1,2,4]triazol-1-yl-1,2,3,4-tetrahydro-quinoline]",11.2%
